Results on six molecules are retold here after publication PMC6556873, “Rapid Covalent-Probe Discovery by Electrophile-Fragment Screening” (Journal of the American Chemical Society, 2019).

Data set [1] has as its target T1, NUDT7 (Homo sapiens, UniProt P0C024).
T1 construct: residues 14-235, E. coli, pNIC28-Bsa4, N-terminal His6 tag removed by TEV, construct 26672 Da
Nature of the data set: X-ray crystal structure, soak. The settings on record: noncovalent; putative substrate binding region.

The target in data set [2] is T2, OTUB2 (OTUB2A) (Homo sapiens, UniProt Q96DC9).
T2 construct: full length residues 1-234, E. coli BL21(DE3)-R3, His tag removed by TEV, construct 27312 Da
T2 sequence (Q96DC9 1-234): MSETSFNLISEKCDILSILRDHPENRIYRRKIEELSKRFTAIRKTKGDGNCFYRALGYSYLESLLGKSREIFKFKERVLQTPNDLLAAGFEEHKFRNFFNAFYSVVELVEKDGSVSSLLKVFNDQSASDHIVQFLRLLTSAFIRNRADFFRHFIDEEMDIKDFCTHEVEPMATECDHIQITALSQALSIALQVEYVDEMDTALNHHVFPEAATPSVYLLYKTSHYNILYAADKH
Nature of the data set: intact protein LC/MS labeling. The settings on record: covalent; 24 h, 4 °C. The data set is classed as binding.

Data set [3] has as its target T1, NUDT7. Nature of the data set: RapidFire MS acetyl-CoA hydrolysis assay. The format is biochemical.
For data set [4], the target named is T1, NUDT7. Kind of data set: RapidFire MS acetyl-CoA hydrolysis, kobs vs [inhibitor]. The note with it: covalent, inactivation constant KI from kinact/KI fit, 5 mM MgCl2, pH 7.5. The format is biochemical.
Data set [5] addresses T1, NUDT7. Described as above. The format is biochemical.
The target in another data set is T3, PCAF (Homo sapiens, UniProt Q92831).
T3 construct: gene KAT2B
On the set-up: Intact protein LC/MS covalent labelling, fragments in pools of five, 200 uM each, 4 °C. The note with it: 24 h, 4 °C, pool of five; 200 µM; covalent.

The target in another data set is T4, BSA (Bos taurus, UniProt P02769).
T4 construct: gene ALB
On the set-up: Intact protein LC/MS covalent labelling, fragments in pools of five, 200 uM each, 4 °C. The settings on record: 24 h, 4 °C, pool of five; 200 µM; covalent.

The target in data set [6] is T1, NUDT7. Set-up: Intact protein LC/MS covalent labelling, fragments in pools of five, 200 uM each, 4 °C. The note with it: 24 h, 4 °C, pool of five; 200 µM; covalent.
In data set [7] the target is T2, OTUB2 (OTUB2A). Set-up: Intact protein LC/MS covalent labelling, fragments in pools of five, 200 uM each, 4 °C. The note with it: 24 h, 4 °C, pool of five; 200 µM; covalent.
The target of data set [8] is T5, NNMT (hNNMT) (Homo sapiens, UniProt P40261).
T5 construct: wild type, N-terminal His6 tag kept (no cleavage described), E. coli, construct 31248 Da
T5 sequence (P40261 1-264): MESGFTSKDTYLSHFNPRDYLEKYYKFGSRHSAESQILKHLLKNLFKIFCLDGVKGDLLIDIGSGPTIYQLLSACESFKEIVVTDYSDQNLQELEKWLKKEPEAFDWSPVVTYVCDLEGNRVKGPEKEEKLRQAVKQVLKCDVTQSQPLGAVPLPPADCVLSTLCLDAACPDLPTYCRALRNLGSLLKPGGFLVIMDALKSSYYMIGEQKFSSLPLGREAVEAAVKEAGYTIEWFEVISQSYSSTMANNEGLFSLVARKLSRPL
Set-up: Intact protein LC/MS covalent labelling, fragments in pools of five, 200 uM each, 4 °C. The settings on record: 24 h, 4 °C, pool of five; 200 µM; covalent.

The nature of data set [9]: in vitro. On the set-up: species or system HB2, CCD841. The note with it: human, hek293 cells.
Data set [10] in a line: in vitro. Set-up: species or system HB2, HEK293. The note with it: human, ccd841 cells.
The nature of data set [11]: in vitro. On the set-up: species or system CCD841, HEK293. The settings on record: human, hb2 cells, read-out: HB-2 Cells Viability (%).
Another data set has as its target T6, K-Ras^G12C (Homo sapiens, UniProt P01116, G12C, species not given).
T6 construct: gene KRAS; residues 1-169, recombinant, construct 19245 Da
Kind of data set: intact protein LC/MS labeling. The format is binding. The settings on record: covalent; 24 h, 4 °C, 2 μM protein, pools of five, pH 8.0.

The target of data set [12] is T5, NNMT (hNNMT). Kind of data set: intact protein LC/MS labeling. The format is binding. The note with it: covalent; promiscuous compound; 24 h, 4 °C, 2 μM protein, pools of five, pH 7.5.
The target of the next data set is T7, USP8 (Homo sapiens, UniProt P40818).
T7 construct: residues 705-1081, E. coli, produced as NUDT7 (His tag removed by TEV), construct 44429 Da
T7 sequence (P40818 705-1081): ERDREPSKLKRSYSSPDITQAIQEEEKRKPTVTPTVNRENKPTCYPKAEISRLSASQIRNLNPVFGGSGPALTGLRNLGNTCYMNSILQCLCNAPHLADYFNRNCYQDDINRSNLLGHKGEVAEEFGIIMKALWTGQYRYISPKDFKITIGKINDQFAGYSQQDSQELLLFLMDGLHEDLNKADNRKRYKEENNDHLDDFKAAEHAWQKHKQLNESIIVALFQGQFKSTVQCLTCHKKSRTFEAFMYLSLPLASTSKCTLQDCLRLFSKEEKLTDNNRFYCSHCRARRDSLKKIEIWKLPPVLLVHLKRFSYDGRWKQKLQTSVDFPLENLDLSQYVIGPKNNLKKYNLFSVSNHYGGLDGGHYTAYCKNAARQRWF
Kind of data set: intact protein LC/MS labeling. The format is binding. The note with it: covalent; promiscuous compound; 24 h, 4 °C, 2 μM protein, pools of five, pH 7.5.

Data set [13] concerns the target T2, OTUB2 (OTUB2A). Nature of the data set: intact protein LC/MS labeling. The data set is classed as binding. The note with it: covalent; 24 h, 4 °C. This is another data set of the same source.

Where two headings read alike, the source gives them in different places.

T1 sequence (P0C024 14-235): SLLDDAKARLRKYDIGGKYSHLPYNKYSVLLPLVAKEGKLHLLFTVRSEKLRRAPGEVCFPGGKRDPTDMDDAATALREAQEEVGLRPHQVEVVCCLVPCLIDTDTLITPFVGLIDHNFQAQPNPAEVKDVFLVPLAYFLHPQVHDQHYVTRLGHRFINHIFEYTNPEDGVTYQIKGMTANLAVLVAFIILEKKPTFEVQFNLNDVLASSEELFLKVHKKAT
T3 sequence (Q92831 whole entry): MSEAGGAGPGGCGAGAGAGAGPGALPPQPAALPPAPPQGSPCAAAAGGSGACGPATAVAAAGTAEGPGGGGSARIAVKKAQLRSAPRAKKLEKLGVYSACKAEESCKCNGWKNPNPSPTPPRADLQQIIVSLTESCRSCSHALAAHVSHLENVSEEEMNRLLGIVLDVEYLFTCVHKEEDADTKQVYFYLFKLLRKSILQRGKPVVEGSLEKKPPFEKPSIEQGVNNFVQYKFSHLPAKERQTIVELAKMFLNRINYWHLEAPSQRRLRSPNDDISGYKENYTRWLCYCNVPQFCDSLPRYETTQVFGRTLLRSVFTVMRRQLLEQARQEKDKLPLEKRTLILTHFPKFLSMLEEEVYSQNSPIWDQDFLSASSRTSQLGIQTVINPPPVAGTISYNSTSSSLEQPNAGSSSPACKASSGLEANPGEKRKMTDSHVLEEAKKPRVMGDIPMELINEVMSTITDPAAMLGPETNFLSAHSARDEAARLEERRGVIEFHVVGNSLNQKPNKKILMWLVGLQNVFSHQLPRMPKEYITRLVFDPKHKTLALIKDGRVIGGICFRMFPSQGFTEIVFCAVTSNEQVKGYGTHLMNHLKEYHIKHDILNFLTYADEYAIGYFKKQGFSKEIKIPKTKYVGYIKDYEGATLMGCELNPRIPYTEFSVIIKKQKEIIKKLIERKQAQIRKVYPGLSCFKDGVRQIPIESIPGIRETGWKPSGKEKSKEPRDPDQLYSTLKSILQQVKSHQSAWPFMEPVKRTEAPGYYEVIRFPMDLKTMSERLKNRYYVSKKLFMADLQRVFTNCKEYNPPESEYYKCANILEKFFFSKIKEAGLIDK
T4 sequence (P02769 whole entry): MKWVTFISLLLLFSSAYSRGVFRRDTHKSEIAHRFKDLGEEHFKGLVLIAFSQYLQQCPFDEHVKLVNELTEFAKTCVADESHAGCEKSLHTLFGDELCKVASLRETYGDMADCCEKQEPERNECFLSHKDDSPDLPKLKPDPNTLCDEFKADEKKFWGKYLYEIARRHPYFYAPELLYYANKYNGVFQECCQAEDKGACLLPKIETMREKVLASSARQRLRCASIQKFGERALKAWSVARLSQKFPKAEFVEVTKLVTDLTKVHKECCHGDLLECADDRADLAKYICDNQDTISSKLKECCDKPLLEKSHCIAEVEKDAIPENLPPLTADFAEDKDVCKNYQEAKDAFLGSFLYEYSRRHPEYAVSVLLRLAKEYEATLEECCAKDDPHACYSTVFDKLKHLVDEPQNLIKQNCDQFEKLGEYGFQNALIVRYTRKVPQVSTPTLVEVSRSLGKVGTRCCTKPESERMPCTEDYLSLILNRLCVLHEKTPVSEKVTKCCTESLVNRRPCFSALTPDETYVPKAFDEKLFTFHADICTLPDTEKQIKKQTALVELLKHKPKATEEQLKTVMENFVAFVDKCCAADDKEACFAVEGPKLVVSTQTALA
T6 sequence (P01116 1-169 G12C): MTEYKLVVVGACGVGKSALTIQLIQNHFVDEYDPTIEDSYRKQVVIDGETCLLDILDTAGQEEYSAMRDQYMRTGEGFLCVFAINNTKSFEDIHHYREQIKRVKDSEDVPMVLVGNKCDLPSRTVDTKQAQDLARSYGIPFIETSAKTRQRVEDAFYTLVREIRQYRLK

Regarding `O=C(Cc1cccc(O)c1)Nc1cccc(Cl)c1` [NUDT7-REV-1], on NUDT7 [1], the “X-ray crystal structure, soak” value is “soaked them into NUDT7 crystals, which yielded a structure in complex with compound NUDT7-REV-1”.

Consider `O=C(CCl)NNC(=O)C(c1ccccc1)c1ccccc1` [OTUB2-COV-17], for which the “% labeling at 100 μM” value at OTUB2 (OTUB2A) [2] is given as 100%.

Molecule `O=C(Cc1cccc(C2CCCN2C(=O)CCl)c1)Nc1cccc(Cl)c1` (racemic) [NUDT7-COV-1] gave an IC50 against NUDT7 [3] of 1.1 µM. This molecule also showed a KI (inactivation) at NUDT7 [4] of 13.2 µM. Further, the kinact/KI at NUDT7 [5] was 757 M⁻¹ s⁻¹.

`Cl.O=C(CCl)N1CCN(Cc2ccc(Cl)cc2)CC1` [PCM-0102818]: on PCAF, the PCAF is on record as 0. In addition, the BSA at BSA stood at 0. Also, the NUDT7 on NUDT7 [6] is 0. For the same molecule, the OTUB2 on OTUB2 (OTUB2A) [7] turned out to be 0.17. Further, on NNMT (hNNMT) [8], the NNMT is 0.14. For the same molecule, the viability at 48 h, 10 µM in “in vitro [9]” came out at 7.8%; in the data set “in vitro [10]”, 31.6%; in the data set “in vitro [11]”, 8.2%. Besides, the “% labeling at 200 μM” value on K-Ras^G12C was determined as 63%.

On to `O=C(CCl)Nc1nc(-c2cc(F)ccc2F)cs1` [PCM-0102496], for which the PCAF on PCAF is recorded as 0. At BSA, the BSA is on record as 0. This molecule also registered an NUDT7 on NUDT7 [6] of 0.53. Further, the OTUB2 on OTUB2 (OTUB2A) [7] is reported as 0. Moreover, on NNMT (hNNMT) [8], the NNMT worked out at 1. The viability at 48 h, 10 µM stood at 2.2% in the data set “in vitro [9]”, 35.7% in the data set “in vitro [10]” and 3.9% in “in vitro [11]”. Also, the “% labeling at 200 μM” value on NNMT (hNNMT) [12] and at USP8 was greater than 50% throughout.

`O=C(CCl)NNC(=O)C1CC1c1ccc(Cl)cc1` (stereo not shown) [OTUB2-COV-22]: on OTUB2 (OTUB2A) [13], the “% labeling at 5 μM” value was 55%.
